Data set [1] deals with T1, PRMT5/MEP50-MTA protein complex (Homo sapiens, UniProt O14744).
T1 construct: purchased Viva Biotech
Kind of data set: Thermal shift assay: thermal stability (melting temperature) of PRMT5/MEP50-MTA protein complex. It counts as binding. The settings on record: final compound concentration 8 µM; 2 µM PRMT5/MEP50, 2 µM MTA; Tm minus Tm of DMSO vehicle control. The text has this:
Test Example 1: Determination of the ability of the compounds of the present invention to improve the thermal stability (melting temperature) of the PRMT5/MEP50-MTA protein complex.
1 Experimental objective: The objective of this test example is to determine the ability of the compound to improve the thermal stability of the PRMT5/MEP50-MTA protein complex, resulting in an increase in the protein melting temperature. 2 Experimental instruments: Quantitative PCR instrument (Quantstudio6 Flex) was purchased from Life Technologies; pipettes were purchased from Eppendorf or Rainin. 3 Experimental reagents and consumables: PRMT5/MEP50 protein was prepared by Viva Biotech; HEPES was purchased from Thermo Fisher Scientific (Cat. No. 15630080); DTT was purchased from Sigma (Cat. No. 43816-10ml); sodium chloride was purchased from Invitrogen (Cat. No. AM9760G); Protein Thermal Shift™ Dye Kit was purchased from Thermo Fisher Scientific (Cat. No. 4461146); methylthioadenosine (MTA) was purchased from Sigma (Cat. No. D5011). 4 Experimental method: In this experiment, the thermal shift method was used to measure the change in the melting temperature (Tm) of the PRMT5/MEP50-MTA protein complex before and after compound binding, thereby characterising the ability of the compound to improve the thermal stability of the PRMT5/MEP50-MTA protein complex. A solution containing 50 mM HEPES, 10 mM DTT, 2 µM MTA, SYPRO Orange and 250 mM NaCl was prepared as the experimental buffer. Human PRMT5/MEP50 protein was added to a final concentration of 2 µM, and the mixture was incubated at room temperature for 30 minutes. The above reaction mixture was aliquoted into 8-strip PCR tubes at 19.5 µL per tube. Then 0.5 µL of test compound or DMSO was added to each tube, providing a total reaction volume of 20 µL and a final compound concentration of 8 µM. 2.5% DMSO was set as the vehicle control. After incubation at room temperature for 10 minutes, the PCR tubes were placed in a PCR instrument, and the melt curve function was selected to measure the melting temperature of the PRMT5/MEP50-MTA protein complex in different treatment groups (heated from 25°C to 95°C, 0.03°C/s). 5 Experimental data processing method: The experimental data files from the PCR instrument were imported into the thermal shift software to obtain the melting temperature (Tm) for each treatment group.

Data set [2] has as its system MTAP Knockout HCT116 cells. Briefly: Cell proliferation inhibition (CellTiter-Glo), HCT116 MTAP knockout cells. Conditions: for Selectivity: HCT116 IC50 versus MTAP Knockout HCT116 IC50; for IC50: Homo sapiens, HCT-116, read-out: MTAP Knockout HCT116 IC50. It counts as cell-based. An excerpt:
(§1) Test Example 2: Determination of the inhibitory effect of the compounds of the present invention on the proliferation activity of HCT116 and MTAP Knockout HCT116 cells.
(§2) 1 Experimental objective: The objective of this test example is to determine the inhibitory effect of the compound on the proliferation activity of HCT116 wild-type and HCT116 MTAP knockout cells. 2 Experimental instruments: Centrifuge (Eppendorf 5810R); microplate reader (BioTek Synergy H1 or PerkinElmer Envision); pipette (Eppendorf or Rainin). 3 Experimental reagents: HCT116 and MTAP Knockout HCT116 cells were purchased from Nanjing Cobioer; Cell Titer-Glo was purchased from Promega (Cat. No. G7573); McCoy'5A was purchased from Gibco (Cat. No. 12330031); FBS was purchased from Gibco (Cat. No. 10091148); PBS was purchased from Gibco (Cat. No. 10010023); trypsin was purchased from Gibco (Cat. No. 25200056); cell culture plates were purchased from Corning (Cat. No. 3610). 4 Experimental method: HCT116 and MTAP Knockout HCT116 cells were cultured in McCoy'5A medium containing 10% FBS until an appropriate cell density was reached. The cells were then collected and adjusted to a suitable concentration using complete medium. The cell suspension was seeded into a 96-well plate at 90 µL per well and allowed to adhere overnight in a 37°C, 5% CO2 incubator. Compound solutions of various concentrations were prepared using DMSO and culture medium, with a vehicle control set. The compound solutions were added to the 96-well plate at 10 µL per well, and the plate was incubated in a 37°C, 5% CO2 incubator for an additional 72-240 hours. After incubation, CellTiter-Glo solution was added, and the mixture was mixed uniformly by shaking, followed by incubation in the dark for 10 to 30 minutes. Luminescence was measured using a Synergy H1 or Envision microplate reader. 5 Experimental data processing method: The inhibition rate was calculated using the luminescence signal values, and the concentrations along with the inhibition rates were subjected to non-linear regression curve fitting using Graphpad Prism software to obtain the IC50 values.

For the next data set, the system named is HCT116 wild-type cells. Briefly: Cell proliferation inhibition (CellTiter-Glo), HCT116 wild-type cells. It counts as cell-based. Conditions: Homo sapiens, HCT-116, read-out: HCT116 IC50.
Excerpt: as §1, §2

Data set [3] can be described thus: Pharmacokinetics in rats (plasma) after oral administration. Conditions: rat, po, SD rats, p.o. 5 mg/kg; for Cmax: read-out: Cmax; for MRT inf: read-out: MRT0-∞; for Tmax: read-out: tmax. It counts as in vivo.
Procedure: Test Example 4: Determination of the pharmacokinetics of the compounds of the present invention in rats (plasma) after oral administration.
1 Study objective: SD rats were used as test animals to study the pharmacokinetic behaviour of the following example compounds in rats (plasma) after oral administration at a dose of 5 mg/kg. 2 Test scheme • 2.1 Test drugs: Vehicle formula: 0.5% CMC-Na (1% Tween 80); the examples of the present invention, made in house. • 2.2 Test animals: 3 SD rats per group, male, purchased from Shanghai Bikai Keyi Biotechnology Co., Ltd., with animal license number (SCXK (Shanghai) 2018-0006, No.20180006037467). • 2.3 Administration: 3 SD rats per group, male, were fasted overnight and then respectively administered PO at a dose of 5 mg/kg and a volume of 10 mL/kg. • 2.4 Sample collection: 0.2 mL of blood was collected from the jugular vein of rats before administration and at 0, 0.25, 0.5, 1, 2, 4, 6, 8 and 24 h after administration, and placed in EDTA-K2test tubes, and the test tubes were centrifuged at 6,000 rpm at 4°C for 6 min to separate the plasma, which was stored at -80°C. The animals were fed 4 h after administration. • 2.5 Sample treatment • 1) 160 uL of acetonitrile was added to 40 uL of plasma sample for precipitation, and after mixing, the mixture was centrifuged at 3,500 × g for 5-20 minutes. • 2) 100 uL of the treated supernatant solution was taken for LC/MS/MS analysis to determine the concentration of the test compounds. • 2.6 Liquid phase analysis • Liquid phase conditions: Shimadzu LC-20AD pump;mass spectrometry conditions: AB Sciex API 4000 mass spectrometer • Chromatographic column: Phenomenex Gemiu 5 um C18 50 × 4.6 mm • Mobile phase: solution A: 0.1% formic acid in water, solution B: methanol • Flow rate: 1.0 mL/min, elution time: 0-4.0 min, with eluents as follows:
Experimental results and analysis: The main pharmacokinetic parameters were calculated using WinNonlin 8.2.

Like-named read-outs stand apart in the source and are kept apart here.

T1 sequence (O14744 whole entry): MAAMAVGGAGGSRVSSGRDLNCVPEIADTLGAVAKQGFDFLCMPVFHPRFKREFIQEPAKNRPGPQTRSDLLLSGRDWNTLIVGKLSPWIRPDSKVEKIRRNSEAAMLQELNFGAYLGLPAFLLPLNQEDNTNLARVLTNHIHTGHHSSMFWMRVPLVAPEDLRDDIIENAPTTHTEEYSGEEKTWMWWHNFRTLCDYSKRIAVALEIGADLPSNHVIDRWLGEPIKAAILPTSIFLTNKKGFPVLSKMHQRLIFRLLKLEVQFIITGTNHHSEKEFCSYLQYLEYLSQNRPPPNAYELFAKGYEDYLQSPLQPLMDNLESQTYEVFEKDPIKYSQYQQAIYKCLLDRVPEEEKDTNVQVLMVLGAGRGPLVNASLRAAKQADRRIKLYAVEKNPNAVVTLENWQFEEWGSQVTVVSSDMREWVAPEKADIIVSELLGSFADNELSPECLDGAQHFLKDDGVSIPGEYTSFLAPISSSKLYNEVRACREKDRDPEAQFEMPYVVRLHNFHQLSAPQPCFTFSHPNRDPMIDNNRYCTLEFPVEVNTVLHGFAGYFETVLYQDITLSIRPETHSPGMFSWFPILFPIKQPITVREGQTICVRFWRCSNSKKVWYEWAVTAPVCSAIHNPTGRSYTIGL
T1 sequence (Q9BQA1 whole entry partner): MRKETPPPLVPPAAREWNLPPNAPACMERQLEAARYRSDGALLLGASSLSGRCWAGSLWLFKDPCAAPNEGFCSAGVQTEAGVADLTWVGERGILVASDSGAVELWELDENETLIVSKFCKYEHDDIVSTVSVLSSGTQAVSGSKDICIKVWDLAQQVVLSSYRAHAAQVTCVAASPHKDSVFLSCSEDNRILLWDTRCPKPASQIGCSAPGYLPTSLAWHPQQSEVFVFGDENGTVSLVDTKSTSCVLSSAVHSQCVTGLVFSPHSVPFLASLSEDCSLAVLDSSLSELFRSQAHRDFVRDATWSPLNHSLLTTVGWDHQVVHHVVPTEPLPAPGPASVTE

In general, ΔTm refers to the shift of the melting midpoint relative to a reference. A word on the IC50: it is the midpoint of a concentration-inhibition curve. For the compound `Nc1nc2cc3c(cc2n2cncc12)C(=O)N(C1COCc2nc(C(F)(F)F)ccc21)CC/C=C\3` (racemic) [Example 311], the ΔTm at 8 µM in data set [1] is 11.1 °C. For the same compound, in data set [2], the Selectivity came to 77 and the IC50 is 23 nM. Also, the IC50 in the data set on HCT116 wild-type cells is 1740 nM.
As for `CC(c1ccc(C(F)(F)F)cn1)N1CCC/C=C\c2cc3nc(N)c4cncn4c3cc2C1=O` (racemic) [Example 352, (Z)-4-Amino-12-(1-(5-(trifluoromethyl)pyridin-2-yl)ethyl)-9,10,11,12-tetrahydro-13H-azo[4,3-g]imidazo[1,5-a]quinoxalin-13-one], the ΔTm at 8 µM in data set [1] came out at 11 °C.
As for `CC1OCc2c1c(N)nc1cc3c(cc21)C(=O)N(Cc1ccc(S(F)(F)(F)(F)F)cn1)CCCOC3` (racemic) [Example 437, 4-Amino-3-methyl-12-((5-(pentafluorosulphanyl)pyridin-2-yl)methyl)-3,7,9,10,11,12-hexahydrofuro[3,4-c][1,5]oxazolo[7,8-g]quinolin-13(1H)-one], the ΔTm at 8 µM in data set [1] is 12.2 °C. In addition, in data set [2], the Selectivity worked out at 64 and the IC50 is 3 nM. Also, the IC50 with HCT116 wild-type cells was found to be 191 nM.
A word on the AUC(0-inf): it is the area under the concentration-time curve extrapolated to infinity. High values mean more exposure, low ones less exposure. For orientation: half-life means the time in which the quantity being followed falls by half. Low readings indicate fast loss, high ones slow loss. The term Cmax denotes the highest concentration seen after dosing. What is called Tmax is the time from dosing to the highest level. In the case of `Nc1nc2cc3c(cc2n2cncc12)C(=O)N(C1COCc2nc(C(F)(F)F)ccc21)CCCC/C=C\3` (single isomer, unassigned) [Example 62-P1], in data set [1], the ΔTm at 8 µM stood at 10.8 °C. For the same compound, in data set [3] (male), the AUC(0-inf) is 800 ng·h/mL, the half-life is 2.2 h, the Cmax came out at 201 ng/mL and the MRT inf stood at 3.8 h. Besides, in data set [3] (male), the Tmax is 1 h.
In the case of `Nc1nc2cc3c(cc2n2cncc12)C(=O)N([C@@H]1COCc2nc(C(F)(F)F)ccc21)CC/C=C\3` (single isomer, unassigned) [Example 311-P1], the ΔTm at 8 µM in data set [1] amounted to 10.9 °C. Further, in data set [3] (in vivo), the AUC(0-inf) was 1780 ng·h/mL, the half-life was 1.8 h, the Cmax turned out to be 330 ng/mL and the MRT inf came to 3.7 h. The Tmax in data set [3] (in vivo) is 2.3 h.
For the compound `C[C@@H]1CCN([C@@H]2COCc3nc(C(F)(F)F)ccc32)C(=O)c2cc3c(cc2CO1)nc(N)c1cncn13` [Example 15-P1, (R)-4-amino-9-methyl-12-((S)-2-(trifluoromethyl)-5,8-dihydro-6H-pyrano[3,4-b]pyridin-5-yl)-9,10,11,12-tetrahydroimidazo[1,5-a][1,5]oxazolo[8,7-g]quinoxalin-13(7H)-one and (S)-4-amino-9-methyl-12-((R)-2-(trifluoromethyl)-5,8-dihydro-6H-pyrano[3,4-b]pyridin-5-yl)-9,10,11,12-tetrahydroimidazo[1,5-a][1,5]oxazolo[8,7-g]quinoxalin-13(7H)-one], the ΔTm at 8 µM in data set [1] worked out at 10.1 °C.
Turning to `Nc1nc2cc3c(cc2n2cncc12)C(=O)N(C1COCc2nc(C(F)(F)F)ccc21)CCCCOC3` (stereo not drawn) [Example 48, 4-Amino-13-(2-(trifluoromethyl)-5,8-dihydro-6H-pyrano[3,4-b]pyridin-5-yl)-10,11,12,13-tetrahydro-7H-imidazo [1,5-a] [1,6] oxazino [3,4-g] quinoxalin-14(9H)-one], the ΔTm at 8 µM in data set [1] stood at 10.9 °C.
Regarding `Nc1nc2cc3c(cc2n2cncc12)C(=O)N(C1COCc2nc(C(F)(F)F)ccc21)CCC/C=C\3` (stereo not drawn) [Example 158, (Z)-4-Amino-12-(2-(trifluoromethyl)-5,8-dihydro-6H-pyrano[3,4-b]pyridin-5-yl)-9,10,11,12-tetrahydro-13H-azonino[4,3-g]imidazo[1,5-a]quinoxalin-13-one], in data set [1], the ΔTm at 8 µM was found to be 11.3 °C. In data set [3] (male), the AUC(0-inf) amounted to 712 ng·h/mL, the half-life is 1.3 h, the Cmax was 287 ng/mL and the MRT inf turned out to be 2 h. Also, the Tmax in data set [3] (male) was 0.5 h.
`Nc1nc2cc3c(cc2n2cncc12)C(=O)N(C1COCc2nc(C(F)(F)F)ccc21)CCCCC3` (stereo not drawn) [Example 159, 4-Amino-12-(2-(trifluoromethyl)-5,8-dihydro-6H-pyrano[3,4-b]pyridin-5-yl)-7,8,9,10,11,12-hexahydro-13H-azonino[4,3-g]imidazo[1,5-a]quinoxalin-13-one]: in data set [1], the ΔTm at 8 µM was found to be 10.5 °C.
As for `Nc1nc2cc3c(cc2n2cncc12)C(=O)N(C1COCc2cc(C(F)(F)F)ccc21)CCC/C=C\3` (stereo not drawn) [Example 167, (Z)-4-Amino-12-(7-trifluoromethylisochroman-4-yl)-9,10,11,12-tetrahydro-13H-azonino[4,3-g]imidazo[1,5-a]quinoxalin-13-one], the ΔTm at 8 µM in data set [1] was determined as 12.3 °C.
Consider `Nc1nc2cc3c(cc2n2cncc12)C(=O)N(Cc1ccc(C(F)(F)F)nn1)CCC/C=C\3` [Example 391, (Z)-4-Amino-12-(6-(trifluoromethyl)pyridazin-3-yl)methyl-9,10,11,12-tetrahydro-13H-azonino[4,3-g]imidazo[1,5-a]quinoxalin-13-one], for which, in data set [1], the ΔTm at 8 µM was found to be 10.9 °C.
On to `CC(c1ccc(C(F)(F)F)nc1)N1CCC/C=C\c2cc3nc(N)c4cncn4c3cc2C1=O` (stereo not drawn) [Example 415, (Z)-4-Amino-12-(1-(6-(trifluoromethyl)pyridin-3-yl)ethyl)-9,10,11,12-tetrahydro-13H-azo[4,3-g]imidazo[1,5-a]quinoxalin-13-one], for which the ΔTm at 8 µM in data set [1] turned out to be 10.3 °C.
As to `CN1CCCN(Cc2ccc(C(F)(F)F)cn2)C(=O)c2cc3c(cc2C1)nc(N)c1cnn(C)c13` [Example 502, 4-Amino-1,8-dimethyl-12-((5-(trifluoromethyl)pyridin-2-yl)methyl)-7,8,9,10,11,12-hexahydro-[1,5]diazonino[7,8-g]pyrazolo[4,3-c]quinolin-13(1H)-one], in data set [1], the ΔTm at 8 µM worked out at 10.6 °C.
In the case of `C[C@@H]1CCCN(Cc2ccc(C(F)(F)F)cn2)C(=O)c2cc3c(cc2C1)nc(N)c1cncn13` [Example 514-P1, (R)-4-amino-8-methyl-12-((5-(trifluoromethyl)pyridin-2-yl)methyl)-7,8,9,10,11,12-hexahydro-13H-azo[4,3-g]imidazo[1,5-a]quinoxalin-13-one], the ΔTm at 8 µM in data set [1] is 11.3 °C.
On the same count and under the same terms, under `Cc1nc(CN2CC/C=C\c3cc4nc(N)c5cncn5c4cc3C2=O)ccc1C(F)(F)F` [Example 688, (Z)-4-Amino-11-((6-methyl-5-(trifluoromethyl)pyridin-2-yl)methyl)-10,11-dihydroazo[4,3-g]imidazo[1,5-a]quinoxalin-12(9H)-one] stands 11.6 °C.

(Values after patent EP4818176A1, “TETRACYCLIC DERIVATIVE INHIBITOR, AND PREPARATION METHOD AND USE THEREFOR” (Shanghai Hansoh Biomedical Co., Ltd., priority 2023, dated 2025).)
